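Each compound was tested at five concentrations against cells in 96-well plates for 48 hours. GI50 = concentration required for 50% inhibition of growth. TGI denotes the concentration required for complete inhibition of growth.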
Experiments:
Assay in all cases: DTP human tumour cell line panel, 48 h
786-0 renal = test system: 786-0 renal
A498 renal = test system: A498 renal
A549 NSCLC = test system: A549 NSCLC
ACHN renal = test system: ACHN renal
BT-549 breast = test system: BT-549 breast
CAKI-1 renal = test system: CAKI-1 renal
CCRF-CEM leukemia = test system: CCRF-CEM leukemia
COLO 205 colon = test system: COLO 205 colon
DU-145 prostate = test system: DU-145 prostate
EKVX NSCLC = test system: EKVX NSCLC
HCC-2998 colon = test system: HCC-2998 colon
HCT-116 colon = test system: HCT-116 colon
HCT-15 colon = test system: HCT-15 colon
HL-60(TB) leukemia = test system: HL-60(TB) leukemia
HOP-62 NSCLC = test system: HOP-62 NSCLC
HOP-92 NSCLC = test system: HOP-92 NSCLC
HS 578T breast = test system: HS 578T breast
HT29 colon = test system: HT29 colon
IGROV1 ovarian = test system: IGROV1 ovarian
K-562 leukemia = test system: K-562 leukemia
KM12 colon = test system: KM12 colon
LOX IMVI melanoma = test system: LOX IMVI melanoma
M14 melanoma = test system: M14 melanoma
MALME-3M melanoma = test system: MALME-3M melanoma
MCF7 breast = test system: MCF7 breast
MDA-MB-231 breast = test system: MDA-MB-231 breast
MDA-MB-435 = test system: MDA-MB-435
MOLT-4 leukemia = test system: MOLT-4 leukemia
NCI-H226 lung = test system: NCI-H226 lung
NCI-H23 lung = test system: NCI-H23 lung
NCI-H460 lung = test system: NCI-H460 lung
NCI-H522 lung = test system: NCI-H522 lung
NCI/ADR-RES ovarian = test system: NCI/ADR-RES ovarian
OVCAR-3 ovarian = test system: OVCAR-3 ovarian
OVCAR-4 ovarian = test system: OVCAR-4 ovarian
OVCAR-5 ovarian = test system: OVCAR-5 ovarian
OVCAR-8 ovarian = test system: OVCAR-8 ovarian
PC-3 prostate = test system: PC-3 prostate
RPMI-8226 leukemia = test system: RPMI-8226 leukemia
RXF 393 renal = test system: RXF 393 renal
SF-268 CNS = test system: SF-268 CNS
SF-295 CNS = test system: SF-295 CNS
SF-539 CNS = test system: SF-539 CNS
SK-MEL-2 melanoma = test system: SK-MEL-2 melanoma
SK-MEL-28 melanoma = test system: SK-MEL-28 melanoma
SK-MEL-5 melanoma = test system: SK-MEL-5 melanoma
SK-OV-3 ovarian = test system: SK-OV-3 ovarian
SN12C renal = test system: SN12C renal
SNB-19 CNS = test system: SNB-19 CNS
SNB-75 CNS = test system: SNB-75 CNS
SR leukemia = test system: SR leukemia
SW-620 colon = test system: SW-620 colon
T-47D breast = test system: T-47D breast
TK-10 renal = test system: TK-10 renal
U251 CNS = test system: U251 CNS
UACC-257 melanoma = test system: UACC-257 melanoma
UACC-62 melanoma = test system: UACC-62 melanoma
UO-31 renal = test system: UO-31 renal

SMILES: COCn1cnc2c(=O)n(-c3ccc(C)cc3)c(=S)n(-c3ccc(C)cc3)c21
- TGI (786-0 renal): > 100 µM
- TGI (A498 renal): > 100 µM
- TGI (A549 NSCLC): > 100 µM
- TGI (ACHN renal): > 100 µM
- TGI (BT-549 breast): > 100 µM
- TGI (CAKI-1 renal): > 100 µM
- TGI (CCRF-CEM leukemia): > 100 µM
- TGI (COLO 205 colon): > 100 µM
- TGI (DU-145 prostate): > 100 µM
- TGI (EKVX NSCLC): > 100 µM
- TGI (HCC-2998 colon): > 100 µM
- TGI (HCT-116 colon): > 100 µM
- TGI (HCT-15 colon): > 100 µM
- TGI (HL-60(TB) leukemia): > 100 µM
- TGI (HOP-62 NSCLC): > 100 µM
- TGI (HOP-92 NSCLC): > 100 µM
- TGI (HS 578T breast): > 100 µM
- TGI (HT29 colon): > 100 µM
- TGI (IGROV1 ovarian): > 100 µM
- TGI (K-562 leukemia): > 100 µM
- TGI (KM12 colon): > 100 µM
- TGI (LOX IMVI melanoma): > 100 µM
- TGI (M14 melanoma): > 100 µM
- TGI (MALME-3M melanoma): > 100 µM
- TGI (MCF7 breast): > 100 µM
- TGI (MDA-MB-231 breast): > 100 µM
- TGI (MDA-MB-435): > 100 µM
- TGI (MOLT-4 leukemia): > 100 µM
- TGI (NCI-H226 lung): > 100 µM
- TGI (NCI-H23 lung): > 100 µM
- TGI (NCI-H460 lung): > 100 µM
- TGI (NCI-H522 lung): > 100 µM
- TGI (NCI/ADR-RES ovarian): > 100 µM
- TGI (OVCAR-3 ovarian): > 100 µM
- TGI (OVCAR-4 ovarian): > 100 µM
- TGI (OVCAR-5 ovarian): > 100 µM
- TGI (OVCAR-8 ovarian): > 100 µM
- TGI (PC-3 prostate): > 100 µM
- TGI (RPMI-8226 leukemia): > 100 µM
- TGI (RXF 393 renal): > 100 µM
- TGI (SF-268 CNS): > 100 µM
- TGI (SF-295 CNS): > 100 µM
- TGI (SF-539 CNS): > 100 µM
- TGI (SK-MEL-2 melanoma): > 100 µM
- TGI (SK-MEL-28 melanoma): > 100 µM
- TGI (SK-MEL-5 melanoma): > 100 µM
- TGI (SK-OV-3 ovarian): > 100 µM
- TGI (SN12C renal): > 100 µM
- TGI (SNB-19 CNS): > 100 µM
- TGI (SNB-75 CNS): > 100 µM
- TGI (SR leukemia): > 100 µM
- TGI (SW-620 colon): > 100 µM
- TGI (T-47D breast): > 100 µM
- TGI (TK-10 renal): > 100 µM
- TGI (U251 CNS): > 100 µM
- TGI (UACC-257 melanoma): > 100 µM
- TGI (UACC-62 melanoma): > 100 µM
- TGI (UO-31 renal): > 100 µM

SMILES: C=CCSSC1N=CNc2nc[nH]c21 (centres undefined)
- GI50 (786-0 renal): 1.75 µM
- TGI (786-0 renal): > 36.3 µM
- GI50 (A498 renal): 67.2 µM
- TGI (A498 renal): > 100 µM
- GI50 (A549 NSCLC): 30.5 µM
- TGI (A549 NSCLC): > 100 µM
- GI50 (ACHN renal): 5.62 µM
- TGI (ACHN renal): > 46.3 µM
- GI50 (BT-549 breast): 8.78 µM
- TGI (BT-549 breast): > 76.4 µM
- GI50 (CAKI-1 renal): 1.97 µM
- TGI (CAKI-1 renal): 34.5 µM
- GI50 (CCRF-CEM leukemia): 0.871 µM
- TGI (CCRF-CEM leukemia): > 28.1 µM
- GI50 (COLO 205 colon): 3.52 µM
- TGI (COLO 205 colon): 14.7 µM
- GI50 (DU-145 prostate): 0.837 µM
- TGI (DU-145 prostate): > 47.5 µM
- GI50 (EKVX NSCLC): 49.4 µM
- TGI (EKVX NSCLC): > 100 µM
- GI50 (HCC-2998 colon): 2.82 µM
- TGI (HCC-2998 colon): 23.8 µM
- GI50 (HCT-116 colon): 2.77 µM
- TGI (HCT-116 colon): 15.8 µM
- GI50 (HCT-15 colon): 4.71 µM
- TGI (HCT-15 colon): 24.5 µM
- GI50 (HL-60(TB) leukemia): 2.4 µM
- TGI (HL-60(TB) leukemia): > 26.2 µM
- GI50 (HOP-62 NSCLC): 1.54 µM
- TGI (HOP-62 NSCLC): > 70.4 µM
- GI50 (HOP-92 NSCLC): 0.376 µM
- TGI (HOP-92 NSCLC): 17 µM
- GI50 (HS 578T breast): 12.8 µM
- TGI (HS 578T breast): > 100 µM
- GI50 (HT29 colon): 5.88 µM
- TGI (HT29 colon): 36.5 µM
- GI50 (IGROV1 ovarian): 2.12 µM
- TGI (IGROV1 ovarian): 11.2 µM
- GI50 (K-562 leukemia): 0.343 µM
- TGI (K-562 leukemia): > 26 µM
- GI50 (KM12 colon): 4.42 µM
- TGI (KM12 colon): > 43.6 µM
- GI50 (LOX IMVI melanoma): 0.374 µM
- TGI (LOX IMVI melanoma): 14.6 µM
- GI50 (M14 melanoma): 0.461 µM
- TGI (M14 melanoma): 18.6 µM
- GI50 (MALME-3M melanoma): 3.61 µM
- TGI (MALME-3M melanoma): > 42.2 µM
- GI50 (MCF7 breast): 1.02 µM
- TGI (MCF7 breast): 16.1 µM
- GI50 (MDA-MB-231 breast): 4.84 µM
- TGI (MDA-MB-231 breast): 36.2 µM
- GI50 (MDA-MB-435): 2.15 µM
- TGI (MDA-MB-435): 39.9 µM
- GI50 (MOLT-4 leukemia): 2.15 µM
- TGI (MOLT-4 leukemia): > 24.1 µM
- GI50 (NCI-H226 lung): 12.2 µM
- TGI (NCI-H226 lung): > 100 µM
- GI50 (NCI-H23 lung): 8.09 µM
- TGI (NCI-H23 lung): 42.8 µM
- GI50 (NCI-H460 lung): 8.16 µM
- TGI (NCI-H460 lung): > 100 µM
- GI50 (NCI-H522 lung): 4.34 µM
- TGI (NCI-H522 lung): 48.3 µM
- GI50 (NCI/ADR-RES ovarian): 4.46 µM
- TGI (NCI/ADR-RES ovarian): > 80.6 µM
- GI50 (OVCAR-3 ovarian): 0.944 µM
- TGI (OVCAR-3 ovarian): 14.2 µM
- GI50 (OVCAR-4 ovarian): 0.446 µM
- TGI (OVCAR-4 ovarian): 5.43 µM
- GI50 (OVCAR-5 ovarian): 7.53 µM
- TGI (OVCAR-5 ovarian): > 50.6 µM
- GI50 (OVCAR-8 ovarian): 4 µM
- TGI (OVCAR-8 ovarian): 23.3 µM
- GI50 (PC-3 prostate): 5.56 µM
- TGI (PC-3 prostate): 28.7 µM
- GI50 (RPMI-8226 leukemia): 1.44 µM
- TGI (RPMI-8226 leukemia): 6.26 µM
- GI50 (RXF 393 renal): 4.73 µM
- TGI (RXF 393 renal): 21.5 µM
- GI50 (SF-268 CNS): 5.66 µM
- TGI (SF-268 CNS): > 46.9 µM
- GI50 (SF-295 CNS): 2.61 µM
- TGI (SF-295 CNS): > 100 µM
- GI50 (SF-539 CNS): 2.6 µM
- TGI (SF-539 CNS): 32.4 µM
- GI50 (SK-MEL-2 melanoma): 6.11 µM
- TGI (SK-MEL-2 melanoma): 19.2 µM
- GI50 (SK-MEL-28 melanoma): 27.2 µM
- TGI (SK-MEL-28 melanoma): > 70.2 µM
- GI50 (SK-MEL-5 melanoma): 5.31 µM
- TGI (SK-MEL-5 melanoma): 39.5 µM
- GI50 (SK-OV-3 ovarian): 0.562 µM
- TGI (SK-OV-3 ovarian): > 88.6 µM
- GI50 (SN12C renal): 10.4 µM
- TGI (SN12C renal): > 67.4 µM
- GI50 (SNB-19 CNS): > 71.6 µM
- TGI (SNB-19 CNS): > 100 µM
- GI50 (SNB-75 CNS): 3.18 µM
- TGI (SNB-75 CNS): > 90.9 µM
- GI50 (SR leukemia): 1.28 µM
- TGI (SR leukemia): > 100 µM
- GI50 (SW-620 colon): 3.71 µM
- TGI (SW-620 colon): 14.9 µM
- GI50 (T-47D breast): 1.39 µM
- TGI (T-47D breast): 26.5 µM
- GI50 (TK-10 renal): 0.708 µM
- TGI (TK-10 renal): 23.8 µM
- GI50 (U251 CNS): 15.9 µM
- TGI (U251 CNS): > 54.4 µM
- GI50 (UACC-257 melanoma): 5.34 µM
- TGI (UACC-257 melanoma): 16.8 µM
- GI50 (UACC-62 melanoma): 1.75 µM
- TGI (UACC-62 melanoma): > 57.7 µM
- GI50 (UO-31 renal): 2.72 µM
- TGI (UO-31 renal): 13 µM

— PubChem BioAssay (NCI)
